In publication PMC13672995, “NCR13 peptide protects soybean against Cercospora sojina using multi-faceted modes of action and additive interaction with chemical fungicides” (Journal of Experimental Botany, 2025):
Where no end group is shown, it is not given here.

Tested on: C. sojina Cs320 and Cs350 on soybean cv. Blackhawk (FLS)
Assay: Pre- and post-inoculation in planta antifungal assays with fungal DNA qPCR
Type: in vivo, Cercospora sojina
Experimental: For both pre- and post-inoculation in planta antifungal activity assays, 2- to 3-week-old soybean plants cv. Blackhawk (FLS susceptible) grown under a16 h light and 8 h dark cycle were used. For pre-inoculation in planta antifungal activity assay, the second or third trifoliate leaves of soybean plants were first sprayed with 1 ml of NCR13_PFV1 peptide (48 µM) on the abaxial leaf surface followed by spray inoculation with 1 ml of conidial suspension (1×10^5 ml^−1) of azoxystrobin-sensitive Cs320 or -resistant Cs350 isolate. For the post-inoculation in planta antifungal activity assay, the second or third trifoliate leaves of soybean were first spray-inoculated with 1 ml of conidial suspension (1×10^5 ml^−1) followed by spray application of 1 ml of NCR13_PFV1 peptide (48 µM) 2 h later. The mock-treated plants were sprayed with water but no peptide. For both pre- and post-inoculation in planta assays, each treatment consisted of at least four plants and the experiments were performed at least twice. The inoculated plants were kept in a growth chamber under a 16 h light and 8 h dark cycle and 90% relative humidity. The FLS symptoms started to appear 7–10 d post-inoculation and disease scoring was done at 14 d. Diseased leaves were excised from the plant, and both white light and CropReporter (Fv/Fm) images were taken to assess the photosynthetic efficiency of the plant. The leaves were also scored based on a 0–5 scale where: 0=healthy leaves with no leaf spots, 1=1–25% leaf area covered with spots, 2=26–50% leaf area covered with spots, 3=slightly yellow leaves with 51–75% leaf area covered with spots, 4=moderately yellow leaves with 76–95% leaf area covered with spots, and 5=whole leaf is yellow or >96% leaf area covered with spots.
Furthermore, DNA was extracted from the excised leaves to quantify the fungal DNA content using quantitative PCR (PCR). […] DNA quantification in terms of fold change was calculated using the ΔΔCt method ([Livak and Schmittgen, 2001]). […]

“TKPCQSDKDCKKFACRKPKVPKCINGFCKCVR (disulfide (positions not given here)) [NCR13_PFV1, chickpea nodule-specific cysteine-rich 32 amino acid peptide, disulfide cross-linking variant 1, expressed in Pichia pastoris]” was tested, and the “fungal biomass in infected leaves (fungal DNA, qPCR)” value (48 µM spray, Cs320 and Cs350, P-value ≤0.05) was “significantly reduced biomass”, the “FLS symptoms (disease severity, 0–5 scale)” value (48 µM spray, pre- or post-inoculation (2 h), Cs320 or Cs350, scored at 14 d, Wilcoxon, P-value ≤0.05, n=8, r=2) was “significantly reduced” and the “concentration giving the best control of FLS symptoms” value (preliminary experiments, 12 µM to 48 µM tested) was 48 µM.
